In ChEMBL document CHEMBL4715697, “Synthesis and biological activity of benzamide DNA minor groove binders” (2016):

Key:
Assay type in all cases: functional
Settings in all cases: read-out: Activity
[1] = system: NCI-H23; assay: Growth inhibition of human NCI-H23 cells assessed as cell growth at 10 uM incubated for 48 hrs by sulforhodamine B assay relative to control
[2] = system: HOP-62; assay: Growth inhibition of human HOP-62 cells assessed as cell growth at 10 uM incubated for 48 hrs by sulforhodamine B assay relative to control
[3] = system: K562; assay: Growth inhibition of human K562 cells assessed as cell growth at 10 uM incubated for 48 hrs by sulforhodamine B assay relative to control
[4] = system: NCI-H322M; assay: Growth inhibition of human NCI-H322M cells assessed as cell growth at 10 uM incubated for 48 hrs by sulforhodamine B assay relative to control
[5] = system: MCF7; assay: Growth inhibition of human MCF7 cells assessed as cell growth at 10 uM incubated for 48 hrs by sulforhodamine B assay relative to control
[6] = system: OVCAR-5; assay: Growth inhibition of human OVCAR-5 cells assessed as cell growth at 10 uM incubated for 48 hrs by sulforhodamine B assay relative to control
[7] = system: OVCAR-3; assay: Growth inhibition of human OVCAR-3 cells assessed as cell growth at 10 uM incubated for 48 hrs by sulforhodamine B assay relative to control
[8] = system: RXF 393; assay: Growth inhibition of human RXF 393 cells assessed as cell growth at 10 uM incubated for 48 hrs by sulforhodamine B assay relative to control
[9] = system: HCC 2998; assay: Growth inhibition of human HCC 2998 cells assessed as cell growth at 10 uM incubated for 48 hrs by sulforhodamine B assay relative to control
[10] = system: CAKI-1; assay: Growth inhibition of human CAKI-1 cells assessed as cell growth at 10 uM incubated for 48 hrs by sulforhodamine B assay relative to control
[11] = system: BT-549; assay: Growth inhibition of human BT-549 cells assessed as cell growth at 10 uM incubated for 48 hrs by sulforhodamine B assay relative to control
[12] = system: KM12; assay: Growth inhibition of human KM12 cells assessed as cell growth at 10 uM incubated for 48 hrs by sulforhodamine B assay relative to control
[13] = system: SNB-19; assay: Growth inhibition of human SNB-19 cells assessed as cell growth at 10 uM incubated for 48 hrs by sulforhodamine B assay relative to control
[14] = system: OVCAR-8; assay: Growth inhibition of human OVCAR-8 cells assessed as cell growth at 10 uM incubated for 48 hrs by sulforhodamine B assay relative to control
[15] = system: MDA-MB-435; assay: Growth inhibition of human MDA-MB-435 cells assessed as cell growth at 10 uM incubated for 48 hrs by sulforhodamine B assay relative to control
[16] = system: UACC-62; assay: Growth inhibition of human UACC-62 cells assessed as cell growth at 10 uM incubated for 48 hrs by sulforhodamine B assay relative to control
[17] = system: HCT-15; assay: Growth inhibition of human HCT-15 cells assessed as cell growth at 10 uM incubated for 48 hrs by sulforhodamine B assay relative to control
[18] = system: SR; assay: Growth inhibition of human SR cells assessed as cell growth at 10 uM incubated for 48 hrs by sulforhodamine B assay relative to control
[19] = system: EKVX; assay: Growth inhibition of human EKVX cells assessed as cell growth at 10 uM incubated for 48 hrs by sulforhodamine B assay relative to control
[20] = system: HT-29; assay: Growth inhibition of human HT-29 cells assessed as cell growth at 10 uM incubated for 48 hrs by sulforhodamine B assay relative to control
[21] = system: M14; assay: Growth inhibition of human M14 cells assessed as cell growth at 10 uM incubated for 48 hrs by sulforhodamine B assay relative to control
[22] = system: SK-MEL-2; assay: Growth inhibition of human SK-MEL-2 cells assessed as cell growth at 10 uM incubated for 48 hrs by sulforhodamine B assay relative to control
[23] = system: A549; assay: Growth inhibition of human A549/ATCC cells assessed as cell growth at 10 uM incubated for 48 hrs by sulforhodamine B assay relative to control
[24] = system: NCI-H460; assay: Growth inhibition of human NCI-H460 cells assessed as cell growth at 10 uM incubated for 48 hrs by sulforhodamine B assay relative to control
[25] = system: IGROV-1; assay: Growth inhibition of human IGROV-1 cells assessed as cell growth at 10 uM incubated for 48 hrs by sulforhodamine B assay relative to control
[26] = system: HL-60(TB); assay: Growth inhibition of human HL-60(TB) cells assessed as cell growth at 10 uM incubated for 48 hrs by sulforhodamine B assay relative to control
[27] = system: RPMI-8226; assay: Growth inhibition of human RPMI-8226 cells assessed as cell growth at 10 uM incubated for 48 hrs by sulforhodamine B assay relative to control
[28] = system: NCI-H522; assay: Growth inhibition of human NCI-H522 cells assessed as cell growth at 10 uM incubated for 48 hrs by sulforhodamine B assay relative to control
[29] = system: MOLT-4; assay: Growth inhibition of human MOLT-4 cells assessed as cell growth at 10 uM incubated for 48 hrs by sulforhodamine B assay relative to control
[30] = system: ACHN; assay: Growth inhibition of human ACHN cells assessed as cell growth at 10 uM incubated for 48 hrs by sulforhodamine B assay relative to control
[31] = system: NCI-H226; assay: Growth inhibition of human NCI-H226 cells assessed as cell growth at 10 uM incubated for 48 hrs by sulforhodamine B assay relative to control
[32] = system: TK-10; assay: Growth inhibition of human TK-10 cells assessed as cell growth at 10 uM incubated for 48 hrs by sulforhodamine B assay relative to control
[33] = system: UO-31; assay: Growth inhibition of human UO-31 cells assessed as cell growth at 10 uM incubated for 48 hrs by sulforhodamine B assay relative to control
[34] = system: HCT-116; assay: Growth inhibition of human HCT-116 cells assessed as cell growth at 10 uM incubated for 48 hrs by sulforhodamine B assay relative to control
[35] = system: Malme-3M; assay: Growth inhibition of human Malme-3M cells assessed as cell growth at 10 uM incubated for 48 hrs by sulforhodamine B assay relative to control
[36] = system: U-251; assay: Growth inhibition of human U-251 cells assessed as cell growth at 10 uM incubated for 48 hrs by sulforhodamine B assay relative to control
[37] = system: T47D; assay: Growth inhibition of human T47D cells assessed as cell growth at 10 uM incubated for 48 hrs by sulforhodamine B assay relative to control
[38] = system: SF-268; assay: Growth inhibition of human SF-268 cells assessed as cell growth at 10 uM incubated for 48 hrs by sulforhodamine B assay relative to control
[39] = system: MDA-MB-231; assay: Growth inhibition of human MDA-MB-231 cells assessed as cell growth at 10 uM incubated for 48 hrs by sulforhodamine B assay relative to control
[40] = system: SN12C; assay: Growth inhibition of human SN12C cells assessed as cell growth at 10 uM incubated for 48 hrs by sulforhodamine B assay relative to control

Structure (SMILES) | growth at 10 µM [1] [%] | growth at 10 µM [2] [%] | growth at 10 µM [3] [%] | growth at 10 µM [4] [%] | growth at 10 µM [5] [%] | growth at 10 µM [6] [%] | growth at 10 µM [7] [%] | growth at 10 µM [8] [%] | growth at 10 µM [9] [%] | growth at 10 µM [10] [%] | growth at 10 µM [11] [%] | growth at 10 µM [12] [%] | growth at 10 µM [13] [%] | growth at 10 µM [14] [%] | growth at 10 µM [15] [%] | growth at 10 µM [16] [%] | growth at 10 µM [17] [%] | growth at 10 µM [18] [%] | growth at 10 µM [19] [%] | growth at 10 µM [20] [%] | also measured
CC(=O)Nc1cc(CO)cc(NC(=O)c2ccc(NC(=O)CCCN3CCOCC3)cc2)c1 | 98.3 | 101 | 96.7 | 107 | 102 | 106 | 121 | 114 | 102 | 110 | 99.8 | 109 | 99.4 | 105 | 100 | 98.3 | 103 | 108 | 103 | 104 | growth at 10 µM [21]: 103%; growth at 10 µM [22]: 101%; growth at 10 µM [23]: 104%; growth at 10 µM [24]: 110%; growth at 10 µM [25]: 126%; growth at 10 µM [26]: 106%; growth at 10 µM [27]: 93.6%; growth at 10 µM [28]: 93.4%; growth at 10 µM [29]: 99.5%; growth at 10 µM [30]: 109%; growth at 10 µM [31]: 95.6%; growth at 10 µM [32]: 93.1%; growth at 10 µM [33]: 86.6%; growth at 10 µM [34]: 104%; growth at 10 µM [35]: 130%; growth at 10 µM [36]: 105%; growth at 10 µM [37]: 98.7%; growth at 10 µM [38]: 110%; growth at 10 µM [39]: 102%; growth at 10 µM [40]: 97%
CC(=O)Nc1cc(CO)cc(NC(=O)c2ccccc2)c1 | 50.8 | 104 | 110 | 110 | 106 | 103 | 118 | 119 | 97.8 | 98.9 | 105 | 116 | 106 | 102 | 105 | 104 | 107 | 107 | 103 | 109 | growth at 10 µM [21]: 109%; growth at 10 µM [22]: 111%; growth at 10 µM [23]: 100%; growth at 10 µM [24]: 104%; growth at 10 µM [25]: 110%; growth at 10 µM [26]: 85.6%; growth at 10 µM [27]: 106%; growth at 10 µM [28]: 97.9%; growth at 10 µM [29]: 98.7%; growth at 10 µM [30]: 109%; growth at 10 µM [31]: 115%; growth at 10 µM [32]: 119%; growth at 10 µM [33]: 95.5%; growth at 10 µM [34]: 105%; growth at 10 µM [35]: 109%; growth at 10 µM [36]: 99.4%; growth at 10 µM [37]: 103%; growth at 10 µM [38]: 103%; growth at 10 µM [39]: 109%; growth at 10 µM [40]: 119%
CC(=O)Nc1cc(CO)cc(NC(=O)c2ccc(C(=O)Nc3cccc(NC(=O)CCCN(C)C)c3)cc2)c1 | 99.1 | 77.7 | 16.7 | 98.5 | 25.2 | 109 | 119 | 113 | 97.7 | 101 | 108 | 83.1 | 114 | 105 | 70 | 64.6 | 105 | 11 | 95.5 | 59.4 | growth at 10 µM [21]: 81%; growth at 10 µM [22]: 91.8%; growth at 10 µM [23]: 108%; growth at 10 µM [24]: 90.3%; growth at 10 µM [25]: 87.4%; growth at 10 µM [26]: 91.2%; growth at 10 µM [27]: 95.6%; growth at 10 µM [28]: 79.5%; growth at 10 µM [29]: 57.9%; growth at 10 µM [30]: 92.8%; growth at 10 µM [31]: 93.6%; growth at 10 µM [32]: 117%; growth at 10 µM [33]: 112%; growth at 10 µM [34]: 79%; growth at 10 µM [35]: 17.6%; growth at 10 µM [36]: 69.9%; growth at 10 µM [37]: 82.4%; growth at 10 µM [38]: 79.4%; growth at 10 µM [39]: 88.6%; growth at 10 µM [40]: 103%
CC(=O)Nc1cc(CCl)cc(NC(=O)c2ccc(C(=O)Nc3cccc(NC(=O)CCCN(C)C)c3)cc2)c1 | 93 | 106 | 113 | 108 | 71 | 92 | 113 | 96 | 99 | 104 | 106 | 104 | 106 | 98 | 100 | 101 | 93 | 125 | 86 | 104 | growth at 10 µM [21]: 104%; growth at 10 µM [22]: 116%; growth at 10 µM [23]: 101%; growth at 10 µM [24]: 110%; growth at 10 µM [25]: 116%; growth at 10 µM [26]: 101%; growth at 10 µM [27]: 116%; growth at 10 µM [28]: 104%; growth at 10 µM [29]: 102%; growth at 10 µM [30]: 99%; growth at 10 µM [31]: 93%; growth at 10 µM [32]: 106%; growth at 10 µM [33]: 98%; growth at 10 µM [34]: 106%; growth at 10 µM [35]: 100%; growth at 10 µM [36]: 100%; growth at 10 µM [37]: 95%; growth at 10 µM [38]: 101%; growth at 10 µM [39]: 106%; growth at 10 µM [40]: 105%
CC(=O)Nc1cc(CO)cc(NC(=O)c2ccc(C(=O)NCCCN3CCOCC3)cc2)c1 | 100 | 105 | 103 | 105 | 102 | 103 | 118 | 108 | 100 | 109 | 94.2 | 113 | 107 | 103 | 103 | 101 | 103 | 94.1 | 115 | 115 | growth at 10 µM [21]: 98.9%; growth at 10 µM [22]: 94.3%; growth at 10 µM [23]: 107%; growth at 10 µM [24]: 111%; growth at 10 µM [25]: 110%; growth at 10 µM [26]: 107%; growth at 10 µM [27]: 95.3%; growth at 10 µM [28]: 91.1%; growth at 10 µM [29]: 94.4%; growth at 10 µM [30]: 108%; growth at 10 µM [31]: 95.6%; growth at 10 µM [32]: 91.9%; growth at 10 µM [33]: 100%; growth at 10 µM [34]: 105%; growth at 10 µM [35]: 106%; growth at 10 µM [36]: 99.5%; growth at 10 µM [37]: 108%; growth at 10 µM [38]: 109%; growth at 10 µM [39]: 103%; growth at 10 µM [40]: 104%
